The source of these data is patent publication US6958311B2, “Flowering regulators” (Riken, priority 2000, dated 2005).

The experiment deals with American Blue (Evolvulus pilosus). The experiment is described as follows: Flowering of American Blue pots in greenhouse after spraying with brassinazole solution. Particulars: sprayed 1000 g/ha on days 0, 7, 14 and 30. The class given is in vivo. The source says: In the figure, □ indicates the result of a group treated with the flowering regulator of the present invention (brassinazole), and ∇ indicates the result of an untreated group. The vertical axis indicates a rate of flowering, and the horizontal axis indicates the number of days after the treatment. The arrows indicate the days when the flowering regulator is sprayed. Forty four pots of American Blue (Evolvulus pilosus) of about one month after cutting, which were purchased as-commercial products, were grown in a greenhouse at 22° C. under a natural light condition during the day and an artificial light condition during the night. These pots were divided into two groups, and 22 plants were sprayed with brassinazole [4-(4-chlorophenyl)-2-phenyl-3-(1,2,4-triazoyl)butan-2-ol] solution in an amount of 1000 g/ha on days 0, 7, 14 and 30. The other group (22 plants) was grown under the same conditions except for the treatment with the agent. As the brassinazole solution, 0.5 mg/ml aqueous solution containing 0.1% dimethyl sulfoxide and 0.1% Tween 20 was prepared, and diluted to a 1/10 concentration with water upon use and sprayed by using a spray in the predetermined amount.

As for `CC(O)(c1ccccc1)C(Cc1ccc(Cl)cc1)n1cncn1` (centres unmarked) [brassinazole, 4-(4-chlorophenyl)-2-phenyl-3-(1,2,4-triazoyl)butan-2-ol], under “compared with the untreated plot”, the flowering accelerating effect entry is reported as “clearly demonstrated”. The “flowering (rate of flowering)” value (greenhouse 22° C., 22 plants, untreated plot: flowering on only one plant on day 35) is “flowering occurred after flower-bud formation”.
